The values below come from patent US20260285853A1, “COMPOUNDS AND METHODS FOR MODULATING SPLICING” (REMIX THERAPEUTICS INC., priority 2023, published 2026).

Assay type in all cases: cell-based
In test [1] the test system is HTT mRNA. Nature of the test: Splicing RT-qPCR assay (THP), Table 2A. The conditions noted are these: Table 2A (THP); for AC50: AJ mRNA increase, read-out: HTT AJ (increase in alternative junction mRNA, AC50); for IC50: CJ mRNA decrease, read-out: HTT CJ (decrease in canonical junction mRNA, IC50). On the technique in general: Real-time PCR tracks product formation cycle by cycle.

For test [2], the system named is MYB mRNA. Nature of the test: Splicing RT-qPCR assay (THP), Table 2A. The conditions noted are these: Table 2A (THP); for AC50: AJ mRNA increase, read-out: MYB AJ (increase in alternative junction mRNA, AC50); for IC50: CJ mRNA decrease, read-out: MYB CJ (decrease in canonical junction mRNA, IC50).
Test [3] relates to HTT mRNA. Nature of the test: Gene panel canonical junction qPCR assay, decrease in CJ mRNA, Table 3. The following applies: decrease in canonical junction (CJ) mRNA, gene panel qPCR, Table 3. The method, boiled down:
(§1)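 A673 cells were plated, left to adhere for 24 h, then dosed; K562 cells were plated in 96- or 384-well format and dosed directly. Both were incubated 24 h at 37 °C with an 11-point 3-fold series (top 10 uM final). Canonical junction mRNA was then read by cDNA synthesis and qPCR.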

In test [4] the test system is MYB mRNA. The test is described as above. The conditions noted are these: decrease in canonical junction (CJ) mRNA, gene panel qPCR, Table 3. The method, boiled down: as §1
Test [5] concerns SH-SY5Y (human neuroblastoma) cells. Nature of the test: Cell viability, Cell Titer Glo 2.0 assay. The following applies: read-out: Viability SHSY5Y.3 GI50. The method, boiled down: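 SH-SY5Y neuroblastoma cells are exposed to test compounds for 72 hours at 37 °C and 5% CO2, with final DMSO held at 0.1%. Cell viability is then measured with the CellTiter-Glo 2.0 assay.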

By AC50 is commonly meant the midpoint of the concentration-response curve, whichever way the signal moves. For orientation: IC50 means the midpoint of a concentration-inhibition curve. As usually defined, the GI50 is the concentration giving 50% growth inhibition. `Cc1cn2cc(NC(=O)c3c(F)cc(N4CCC(NC5CC5)CC4)c4cn(C)nc34)nc2c(CN)n1` [Compound 392, N-[8-(aminomethyl)-6-methyl-imidazo[1,2-a]-pyrazin-2-yl]-4-[4-(cyclopropylamino)-1-piperidyl]-6-fluoro-2-methyl-indazole-7-carboxamide]: the concentration at half-maximal activity (AC50) with HTT mRNA [1] is greater than 10 µM; in the test with MYB mRNA [2], 1 to 10 µM. In addition, the IC50 is greater than 10 µM in the test on HTT mRNA [1], 1 to 10 µM with MYB mRNA [2], greater than 10 µM in the test with HTT mRNA [3] and 1 to 10 µM in the test on MYB mRNA [4]. The GI50 in test [5] is greater than 10 µM.

In the case of `Cc1cn2cc(NC(=O)c3c(F)cc(N4CCC(NC5CC5)CC4)c4cn(C)nc34)nc2c(CNS(C)(=O)=O)n1` [Compound 393, 4-(4-(cyclopropylamino)piperidin-1-yl)-6-fluoro-2-methyl-N-(6-methyl-8-(methylsulfonamidomethyl)imidazo[1,2-a]pyrazin-2-yl)-2H-indazole-7-carboxamide 2,2,2-trifluoroacetate], the concentration at half-maximal activity (AC50) was greater than 10 µM in the test with HTT mRNA [1] and 0.1 to 1 µM in the test on MYB mRNA [2]. The IC50 in the test on HTT mRNA [1] is greater than 10 µM; in the test on MYB mRNA [2] it was 0.1 to 1 µM; in the test on HTT mRNA [3] it was greater than 10 µM; with MYB mRNA [4] it was 0.1 to 1 µM. In test [5], the GI50 lay in the range of 1 to 10 µM.

In the case of `CCNC1CCN(c2ncc(C(=O)Nc3cn4cc(C)nc(C)c4n3)c3nn(C)cc23)CC1` [Compound 394, N-(6,8-dimethylimidazo[1,2-a]pyrazin-2-yl)-4-[4-(ethylamino)-1-piperidyl]-2-methyl-pyrazolo-[4,3-c]-pyridine-7-carboxamide], the values for the AC50 in the test with HTT mRNA [1] and in the test on MYB mRNA [2] were 1 to 10 µM and less than 0.1 µM, respectively. Moreover, the IC50 in the test with HTT mRNA [1] lay within 1 to 10 µM; with MYB mRNA [2], 0.1 to 1 µM; in the test on HTT mRNA [3], 1 to 10 µM; with MYB mRNA [4] it was 0.1 to 1 µM. Also, the concentration for 50% growth inhibition (GI50) in test [5] is greater than 10 µM.

Consider `COc1cc2nc(C)cn2cc1NC(=O)c1c(F)cc(N2CCC(NC3CC3)CC2)c2cn(C)nc12` [Compound 395, 4-[4-(cyclopropylamino)-1-piperidyl]-6-fluoro-N-(7-methoxy-2-methyl-imidazo[1,2-a]pyridin-6-yl)-2-methyl-indazole-7-carboxamide], for which the figures for the AC50 with HTT mRNA [1] and with MYB mRNA [2] were greater than 10 µM and less than 0.1 µM, respectively. The IC50 with HTT mRNA [1] is greater than 10 µM; in the test with MYB mRNA [2] it was 0.1 to 1 µM; in the test on HTT mRNA [3], greater than 10 µM; in the test on MYB mRNA [4], 0.1 to 1 µM. For the same compound, the concentration for 50% growth inhibition (GI50) in test [5] lay in the range of 0.1 to 1 µM.

Take `COc1cc2nn(C)cc2cc1NC(=O)c1c(F)cc(N2CCC(NC3CC3)CC2)c2cn(C)nc12` [Compound 396, 4-[4-(cyclopropylamino)-1-piperidyl]-6-fluoro-N-(6-methoxy-2-methyl-indazol-5-yl)-2-methyl-indazole-7-carboxamide]: the half-maximal activity concentration (AC50) in the test with HTT mRNA [1] is 0.1 to 1 µM; with MYB mRNA [2], less than 0.1 µM. Besides, the IC50 in the test with HTT mRNA [1] is 0.1 to 1 µM; with MYB mRNA [2], less than 0.1 µM; in the test on HTT mRNA [3] it was 0.1 to 1 µM; with MYB mRNA [4], less than 0.1 µM. Also, in test [5], the GI50 was less than 0.1 µM.

On to `COc1c(NC(=O)c2c(F)cc(N3CCC(NC4CC4)CC3)c3cn(C)nc23)cn2cc(C)nc2c1C` [Compound 397, 4-[4-(cyclopropylamino)-1-piperidy1]-6-fluoro-N-(7-methoxy-2,8-dimethyl-imidazo[1,2-a]pyridin-6-y1)-2-methyl-indazole-7-carboxamide], for which the AC50 in the test on HTT mRNA [1] is greater than 10 µM; in the test on MYB mRNA [2] it was 1 to 10 µM. Besides, the IC50 was greater than 10 µM in the test on HTT mRNA [1], 1 to 10 µM in the test on MYB mRNA [2], greater than 10 µM in the test on HTT mRNA [3] and 1 to 10 µM in the test with MYB mRNA [4]. For the same compound, the concentration for 50% growth inhibition (GI50) in test [5] was in the range of 1 to 10 µM.

As to `COc1nc2nc(C)cn2cc1NC(=O)c1c(F)cc(N2CCC(NC3CC3)CC2)c2cn(C)nc12` [Compound 398, 4-[4-(cyclopropylamino)-1-piperidy1]-6-fluoro-N-(7-methoxy-2-methyl-imidazo-[1,2-a]pyrimidin-6-yl)-2-methyl-indazole-7-carboxamide], the AC50 in the test with HTT mRNA [1] is 1 to 10 µM; in the test with MYB mRNA [2] it was less than 0.1 µM. Also, the half-maximal inhibitory concentration (IC50) in the test on HTT mRNA [1] was 1 to 10 µM; with MYB mRNA [2], less than 0.1 µM; in the test on HTT mRNA [3], 1 to 10 µM; in the test with MYB mRNA [4], less than 0.1 µM. The GI50 in test [5] is 0.1 to 1 µM.

Regarding `Cc1cn2cc(NC(=O)c3c(F)cc(N4CCC(NC5CC5)CC4)c4cn(C)nc34)cc(Oc3ccccn3)c2n1` [Compound 399], the AC50 was 1 to 10 µM in the test with HTT mRNA [1] and less than 0.1 µM with MYB mRNA [2]. Besides, the IC50 in the test on HTT mRNA [1] was in the range of 1 to 10 µM; with MYB mRNA [2] it was 0.1 to 1 µM; in the test with HTT mRNA [3], 1 to 10 µM; in the test with MYB mRNA [4], 0.1 to 1 µM. Besides, in test [5], the concentration for 50% growth inhibition (GI50) lay within 0.1 to 1 µM.

On to `CC(=O)NCc1nc(C)cn2cc(NC(=O)c3c(F)cc(N4CCC(NC5CC5)CC4)c4cn(C)nc34)nc12` [Compound 400, N-(8-(acetamido-methyl)-6-methylimidazo [1,2-a]-pyrazin-2-yl)-4-(4-(cyclopropylamino)-piper-idin-1-yl)-6-fluoro-2-meth-yl-2H-indazole-7-carbox-amide 2,2,2-trifluoro-acetate], for which the results for the AC50 in the test with HTT mRNA [1] and with MYB mRNA [2] were greater than 10 µM and 1 to 10 µM, respectively. Besides, the concentration for half-maximal inhibition (IC50) was greater than 10 µM in the test with HTT mRNA [1], 1 to 10 µM in the test on MYB mRNA [2], greater than 10 µM with HTT mRNA [3] and 1 to 10 µM in the test with MYB mRNA [4]. Besides, the concentration for 50% growth inhibition (GI50) in test [5] is greater than 10 µM.

Consider `Cc1nc(CN)cn2cc(NC(=O)c3c(F)cc(N4CCC(NC5CC5)CC4)c4cn(C)nc34)nc12` [Compound 401, N-[6-(aminomethyl)-8-methyl-imidazo[1,2-a]pyrazin-2-yl]-4-[4-(cyclopropylamino)-1-piperidyl]-6-fluoro-2-methyl-indazole-7-carboxamide], for which the AC50 in the test with HTT mRNA [1] was greater than 10 µM; with MYB mRNA [2] it was 1 to 10 µM. For the same compound, the IC50 with HTT mRNA [1] is greater than 10 µM; with MYB mRNA [2] it was 1 to 10 µM; with HTT mRNA [3], greater than 10 µM; in the test with MYB mRNA [4], 1 to 10 µM. Also, the GI50 in test [5] was greater than 10 µM.

As to `CCNC1CCN(c2cc(F)c(C(=O)Nc3nc4c(C)nc(C)cc4n3C)c3nn(C)cc23)CC1` [Compound 402, 4-(4-(ethylamino)-piperidin-1-yl)-6-fluoro-2-methyl-N-(1,4,6-trimethyl-1H-imidazo[4,5-c]pyridin-2-yl)-2H-indazole-7-carboxamide bis(2,2,2-trifluoroacetate)], the AC50 with HTT mRNA [1] and in the test on MYB mRNA [2] was greater than 10 µM in each case. Moreover, the IC50 in the test with HTT mRNA [1], in the test with MYB mRNA [2], in the test with HTT mRNA [3] and with MYB mRNA [4] was greater than 10 µM throughout. Besides, the GI50 in test [5] is greater than 10 µM.

In the case of `Cc1c2cc(NC(=O)c3c(F)cc(N4CCC(NC5CC5)CC4)c4cn(C)nc34)cc(F)c2nn1C` [Compound 403, 4-[4-(cyclopropyl-amino)-1-piperidyl]-6-fluoro-N-(7-fluoro-2,3-dimethyl-indazol-5-y1)-2-methyl-indazole-7-carboxamide], the AC50 with HTT mRNA [1] and in the test on MYB mRNA [2] was greater than 10 µM in each case. The concentration for half-maximal inhibition (IC50) with HTT mRNA [1], in the test on MYB mRNA [2], with HTT mRNA [3] and with MYB mRNA [4] was greater than 10 µM in each case. Besides, the concentration for 50% growth inhibition (GI50) in test [5] lay in the range of 0.1 to 1 µM.

Regarding `Cc1cn2cc(NC(=O)c3c(F)cc(N4CCC(NC5CC5)CC4)c4cn(C)nc34)nc2cn1` [Compound 404, 4-(4-(cyclopropylamino)-piperidin-1-yl)-6-fluoro-2-methyl-N-(6-methylimid-azo-[1,2-a]pyrazin-2-yl)-2H-indazole-7-carbox-amide 2,2,2-trifluoro-acetate], the AC50 with HTT mRNA [1] is 1 to 10 µM; in the test with MYB mRNA [2] it was less than 0.1 µM. Moreover, the IC50 with HTT mRNA [1] is greater than 10 µM; with MYB mRNA [2], less than 0.1 µM; in the test with HTT mRNA [3], greater than 10 µM; in the test with MYB mRNA [4], less than 0.1 µM. Further, in test [5], the GI50 was in the range of 0.1 to 1 µM.

As to `COc1c(NC(=O)c2c(F)cc(N3CCC(NC4CC4)CC3)c3cn(C)nc23)cc2cn(C)nc2c1F` [Compound 405, 4-[4-(cyclopropylamino)-1-piperidyl]-6-fluoro-N-(7-fluoro-6-methoxy-2-methyl-indazol-5-yl)-2-methyl-indazole-7-carboxamide], the concentration at half-maximal activity (AC50) was 0.1 to 1 µM with HTT mRNA [1] and less than 0.1 µM in the test with MYB mRNA [2]. In addition, the concentration for half-maximal inhibition (IC50) was 0.1 to 1 µM with HTT mRNA [1], less than 0.1 µM in the test with MYB mRNA [2], 0.1 to 1 µM with HTT mRNA [3] and less than 0.1 µM in the test on MYB mRNA [4]. Moreover, the GI50 in test [5] was less than 0.1 µM.

As for `CCOc1cc2nc(C)cn2cc1NC(=O)c1c(F)cc(N2CCC(NC3CC3)CC2)c2cn(C)nc12` [Compound 406, 4-[4-(cyclopropylamino)-1-piperidyl]-N-(7-ethoxy-2-methyl-imidazo[1,2-a]pyridin-6-yl)-6-fluoro-2-methyl-indazole-7-carboxamide], the concentration at half-maximal activity (AC50) in the test with HTT mRNA [1] was 1 to 10 µM; with MYB mRNA [2], 0.1 to 1 µM. In addition, the IC50 in the test on HTT mRNA [1] was in the range of 1 to 10 µM; in the test on MYB mRNA [2] it was 0.1 to 1 µM; with HTT mRNA [3] it was 1 to 10 µM; in the test on MYB mRNA [4] it was 0.1 to 1 µM. Also, the GI50 in test [5] lay in the range of 0.1 to 1 µM.
